Laboratory results published in patent US5688824A, “Use of leflunomide to prevent or control xenograft rejection” (priority 1996, dated 1997).
Like-named read-outs stand apart in the source and are kept apart here.

How the values were obtained:
[1] = tested on: heterotopic small intestinal transplantation; settings: continuous infusion pump, cited from earlier work
[2] = tested on: intimal thickening in balloon-injured carotids; settings: 20 mg/kg daily from day 3 pre-transplant to day 13 post-transplant; cited from earlier work
[3] = tested on: xenophile antibodies to human peripheral blood lymphocytes (PBL); settings: cited from earlier work
[4] = tested on: IL-2; settings: cited from earlier work
[5] = tested on: skin grafts; settings: cited from earlier work
[6] = tested on: proteoglycan-induced arthritis; settings: BALB/c mouse; cited from earlier work
[7] = tested on: human T-cell; settings: stimulated by allogeneic lymphocytes, anti-CD3 or anti-CD28 with PMA, or IL-2 or IL-2 with PMA; cited from earlier work
[8] = tested on: rejection of concordant hamster to rat cardiac xenografts; test: hamster to rat concordant cardiac xenograft rejection; assay type: in vivo, Golden Syrian hamster donor, Lewis (LEW) rat recipient
From the text: The fundamental design of this experiment was to determine a dose response curve using leflunomide as monotherapy, CsA as monotherapy, and both used as combination therapy. End points used to assess efficacy were duration of time to rejection, mortality, histologic differences among the treatment groups, and donor specific antibody responses.
Male LEW rats weighing approximately 200 grams and male Golden Syrian hamsters weighing approximately 150 grams (Harlan, Sprague, Dawley, Indianapolis, Ind.) were allowed five to ten days of acclimatization before surgery was performed. Ketamine-xylazine anesthesia was used in all animals and food and water were freely allowed post-operatively.
Heart transplantation was performed according to the technique of Ono et al., Cardiovasc. […] Cardiac xenograft survival was determined by daily palpation, and rejection was considered complete when the impulse was undetectable. CsA, in its intravenous form (Sandimmune, Sandoz Corporation, East Hanover, N.J.) was administered daily by intramuscular injection to the rat hind limbs. Leflunomide (HWA-486, Hoechst AG, Germany) suspended in 1% carboxymethylcellulose was administered by gavage daily. Immunosuppression therapy was started on the day of surgery unless otherwise specified.
The transplanted animals were assigned to one control group and twelve treatment groups, with dosing at 2.5, 5, 10, 15 and 20 mg/kg of leflunomide, and 10 and 20 mg/kg of CsA. In two groups CsA was kept at 10 mg/kg while leflunomide was dosed at 5 or 10 mg/kg. Three additional treatment groups were included in which leflunomide monotherapy was started seven days before transplantation, or two or three days after transplantation.
The graft heart was excised after cessation of heart beat. Part of the heart was snap frozen in liquid nitrogen and stored at -70° C.; the remainder was fixed in formalin and stained with hematoxylin and eosin to determine pathological changes. The frozen tissue was stained for IgM and IgG deposition using ABC Technique according to Hsu et al., J. Histochem. Cytochem., 29:577 (1981).

[9] = tested on: epidermal growth factor (EGF)-dependent cell growth; settings: cited from earlier work
[10] = tested on: intimal thickening of BN orthotopic femoral arterial grafts; settings: oral 10 mg/kg/day; cited from earlier work
[11] = tested on: cGvH disease or SLE; settings: mouse, U.S. Pat. No. 4,965,276; cited from earlier work
[12] = tested on: rejection of concordant hamster to rat renal xenografts; test: hamster to rat concordant renal xenograft rejection; assay type: in vivo, Golden Syrian hamster donor, LEW rat recipient
Experimental: Like Example 2, this experiment was also designed to determine a dose response curve using leflunomide as monotherapy, CsA as monotherapy, and both used as combination therapy. End points used to assess efficacy were duration of time to rejection, mortality, and histologic differences among the treatment groups.
Golden Syrian hamsters and LEW rats were maintained as in Example 2, and leflunomide and CsA were administered in the same manner as in Example 2. Renal transplantation was performed using cuffs of aorta and vena cava for vascular anastomosis; the donor ureter bearing a button of bladder was connected to the recipient bladder. Both recipient kidneys were removed at the time of transplantation.
Leflunomide monotherapy was dosed at 2.5, 5, 10 and 15 mg/kg. CsA monotherapy at 10 mg/kg was given to one group. Two groups were given combination therapy of leflunomide 5 mg/kg with CsA 5 mg/kg, and leflunomide 5 mg/kg with CsA 10 mg/kg. Serum creatinine was measured at 7 days and 21 days. Rejection was defined as death of the animal from uremia with histology consistent with immune-mediated injury.
At the death of the animal, the kidney graft was removed, fixed in formalin, and stained with hematoxylin and eosin to determine the extent of pathological change. IgG and IgM staining was also done on formalin-fixed tissue, using ABC Technique as for Example 2.

[13] = tested on: platelet derived growth factor-receptor (PDGFR) tyrosine kinase; settings: cited from earlier work
[14] = tested on: rat adjuvant arthritis models and rat allergic encephalitis model; settings: cited from earlier work
[15] = cited from earlier work
[16] = Lef 15 mg/kg, day began 0, group 5, listed as Lef
[17] = 2.5 mg/kg or 5 mg/kg leflunomide
[18] = 10 mg/kg and 15 mg/kg leflunomide

Question: Which survival of recipients ([1]; 7 days) does the source give for `Cc1oncc1C(=O)Nc1ccc(C(F)(F)F)cc1` [leflunomide, N-(4-trifluoromethylphenyl)-5-methylisoxazol-4-carboxamide] here?
Answer: Its survival of recipients is 29.3 ± 13.8 days.

Question: And the survival of recipients ([1]; 14 days)?
Answer: Its survival of recipients is 38.8 ± 11.5 days.

Question: And the intimal thickening [2]?
Answer: The intimal thickening was “significantly reduced intimal thickening in balloon-injured carotids”.

Question: What about the “pre-existing, natural xenophile antibodies” value ([3]; 10 mg/kg/day for 10 days) of the same molecule?
Answer: The value was “decrease in pre-existing, natural xenophile antibodies”.

Question: And the xenophile antibody production ([3]; 3 or 10 mg/kg/day from day -4 to day +10, sensitized rats)?
Answer: The xenophile antibody production was “inhibited xenophile antibody production in a dose-dependent manner”.

Question: What about the “inhibition of production of IL-2” value [4] of the same molecule?
Answer: The value was “only partially inhibits the production of IL-2”.

Question: What about the “skin graft survival time vs untreated” value ([5]; 2.5 to 20 mg/kg by gavage for 10 days) of the same molecule?
Answer: Its value is “more than doubled graft survival time compared to untreated animals”.

Question: What about the “skin graft survival, delayed treatment” value ([5]; started five to ten days after grafting) of the same molecule?
Answer: Its value is “achieved prolongation of skin graft survival”.

Question: And the effect on arthritis [6]?
Answer: The effect on arthritis was “suppresses acute inflammation and protects animals from new inflammatory episodes or acute exacerbation of chronically inflamed joints”.

Question: And the “inhibition of human T-cell proliferation” value [7]?
Answer: Its value is “inhibit human T-cell proliferation”.

Question: What about the graft histology ([8]; 2.5 mg/kg leflunomide, rejected grafts) of the same molecule?
Answer: The graft histology was “Interstitial hemorrhage, focal vascular thrombosis and myocardial necrosis with sparse polymorphonuclear cellular infiltration”.

Question: And the graft histology ([8]; 5.0 mg/kg leflunomide, rejected grafts)?
Answer: The graft histology was “Interstitial hemorrhage, focal vascular thrombosis and myocardial necrosis with sparse polymorphonuclear cellular infiltration”.

Question: And the graft histology ([8]; 15 mg/kg leflunomide monotherapy, long-term grafts)?
Answer: Its graft histology is “myocardial fibrosis, moderate mononuclear cell infiltration and arterial thickening, consistent with chronic rejection”.

Question: What about the “Mean Survival ± SD” value ([8]; Lef 2.5 mg/kg, day began 0, group 2) of the same molecule?
Answer: Its value is 5.0 ± 0.6 days.

Question: And the “Mean Survival ± SD” value ([8]; Lef 5 mg/kg, day began 0, group 3)?
Answer: The value was 7.7 ± 2.5 days.

Question: And the “Graft Survival for Each Subject” value ([8]; Lef 5 mg/kg, day began 0, group 3, listed as Lef)?
Answer: The value was 8,14 days.

Question: And the “Mean Survival ± SD” value ([8]; Lef 10 mg/kg, day began 0, group 4)?
Answer: Its value is 52.0 ± 20.2 days.

Question: What about the “Mean Survival ± SD” value ([8]; Lef 10 mg/kg, day began +2, group 12) of the same molecule?
Answer: The value was 58.0 ± 13.7 days.

Question: And the “Graft Survival for Each Subject” value ([8]; Lef 10 mg/kg, day began +2, group 12, listed as Lef)?
Answer: The value was 76,77 days.

Question: What about the “Mean Survival ± SD” value ([8]; Lef 10 mg/kg, day began +3, group 13) of the same molecule?
Answer: The value was 3.7 ± 0.5 days.

Question: And the “Mean Survival ± SD” value ([8]; Lef 10 mg/kg, day began -7, group 11)?
Answer: Its value is 64.0 ± 13.3 days.

Question: And the “Mean Survival ± SD” value ([8]; Lef 15 mg/kg, day began 0, group 5)?
Answer: Its value is 76.5 ± 21 days.

Question: And the “Graft Survival for Each Subject” value [8, 16]?
Answer: Its value is 100,105 days.

Question: What about the “Mean Survival ± SD” value [8, 16] of the same molecule?
Answer: The value was 76.5 ± 21.1 days.

Question: And the “Mean Survival ± SD” value ([8]; Lef 20 mg/kg, day began 0, group 6)?
Answer: The value was 58.9 ± 28.1 days.

Question: And the “Graft Survival for Each Subject” value ([8]; Lef 20 mg/kg, day began 0, group 6, listed as Lef)?
Answer: Its value is 100 days.

Question: And the “time to rejection of the graft” value ([8]; initiation of leflunomide delayed until day 3, all animals)?
Answer: Its value is at most 24 h.

Question: What about the toxicity ([8]; leflunomide 20 mg/kg) of the same molecule?
Answer: The toxicity was “lethal toxicity appeared”.

Question: And the optimal dose ([8]; leflunomide monotherapy)?
Answer: Its optimal dose is 15 mg/kg.

Question: And the “control of xenograft rejection” value ([8]; leflunomide monotherapy, high doses causing toxicity)?
Answer: Its value is “unable to totally control xenograft rejection”.

Question: And the minimal effective dose ([8]; leflunomide monotherapy, read-out: dose at which graft survival exceeded that of untreated controls)?
Answer: The minimal effective dose was 10 mg/kg.

Question: And the “effect of start time on length of graft survival” value ([8]; leflunomide started seven days before or two days after transplantation)?
Answer: The value was “no significant effect on length of graft survival”.

Question: And the “inhibition of EGF-dependent cell growth” value [9]?
Answer: Its value is “capable of inhibiting epidermal growth factor (EGF)-dependent cell growth”.

Question: And the intimal thickening [10]?
Answer: Its intimal thickening is “reduced intimal thickening compared to untreated controls”.

Question: What about the “glomerulonephritis, anti-dsDNA titer, GvH index, T-lymphocyte proliferative ability” value [11] of the same molecule?
Answer: The value was “prevented development of glomerulonephritis, reduced anti-dsDNA titer, decreased the GvH index (a measure of relative spleen enlargement), and improved the diminished proliferative ability of T-lymphocytes”.

Question: What about the “inhibition of development of cGvH disease or SLE” value [11] of the same molecule?
Answer: The value was “effective in inhibiting the development of cGvH disease or SLE”.

Question: And the effect on survival [12, 17]?
Answer: The effect on survival was “did not significantly increase survival time”.

Question: And the histopathology [12, 17]?
Answer: The histopathology was “did not significantly alter histopathology compared to controls”.

Question: What about the “mean serum creatinine values vs controls” value [12, 17] of the same molecule?
Answer: Its value is “slightly reduced”.

Question: And the effect on survival [12, 18]?
Answer: The effect on survival was “statistically significant improvement in survival”.

Question: And the histology [12, 18]?
Answer: The histology was “the histology did not show significant rejection”.

Question: And the “Mean Creatinine Day 7” value ([12]; Lef 2.5 mg/kg, group 2)?
Answer: The value was 3.6.

Question: What about the “Mean Survival ± S.D.” value ([12]; Lef 2.5 mg/kg, group 2) of the same molecule?
Answer: Its value is 8.5 ± 2.1.

Question: What about the “Mean Creatinine Day 7” value ([12]; Lef 5.0 mg/kg, group 3) of the same molecule?
Answer: Its value is 2.7.

Question: What about the “Mean Survival ± S.D.” value ([12]; Lef 5.0 mg/kg, group 3) of the same molecule?
Answer: Its value is 7.0 ± 2.6.

Question: What about the “Mean Creatinine Day 7” value ([12]; Lef 10 mg/kg, group 4) of the same molecule?
Answer: Its value is 1.6.

Question: What about the “Mean Survival ± S.D.” value ([12]; Lef 10 mg/kg, group 4) of the same molecule?
Answer: Its value is 17.0 ± 8.9.

Question: And the “Mean Creatinine Day 7” value ([12]; Lef 15 mg/kg, group 5)?
Answer: The value was 1.2.

Question: What about the “Mean Survival ± S.D.” value ([12]; Lef 15 mg/kg, group 5) of the same molecule?
Answer: The value was 13.2 ± 7.1.

Question: And the “Graft Survival for Each Subject” value ([12]; Lef 15 mg/kg, group 5, listed as Lef)?
Answer: Its value is 17,24.

Question: What about the terminal serum creatinine ([12]; appropriate dose of leflunomide, most of the animals) of the same molecule?
Answer: The terminal serum creatinine was “less than 2.5”.

Question: And the “inhibition of PDGFR tyrosine kinase activity” value [13]?
Answer: Its value is “inhibits the intrinsic EGF receptor kinase as well as other kinases such as platelet derived growth factor-receptor (PDGFR) tyrosine kinase activity”.

Question: What about the “anti-inflammatory activity and toxicity” value ([14]; U.S. Pat. No. 4,351,841) of the same molecule?
Answer: Its value is “superior anti-inflammatory activity and decreased toxicity”.

Question: What about the “inhibition of immunopathological processes” value ([14]; two rat adjuvant arthritis models and a rat allergic encephalitis model) of the same molecule?
Answer: The value was “inhibit immunopathological processes”.

Question: And the toxicity ([15]; animal studies, extremely high doses)?
Answer: Its toxicity is “liver and cardiac toxicity”.

Question: What about the tolerability ([15]; animals and man) of the same molecule?
Answer: Its tolerability is “well tolerated in animals and man”.
